Experimental data taken from patent US8820316B2, “Drug delivery apparatus” (Respironics Respiratory Drug Delivery (UK) Ltd, priority 2000, dated 2014).

Legend:
[1] = Sputum tobramycin concentration, conventional nebulizer versus high compliance system; format: in vivo, patients; details: human, inhaled
Method: To compare the performance of a conventional nebulizer and a high compliance system according to this invention using Tobramycin 8 patients received either 300 mg/5 ml via conventional nebulizer or 30 mg delivered dose via the high compliance system. The mean sputum tobramycin concentrations at 2 hours were 128 μg/g for the conventional nebulizer and 98 μg/g for the high compliance system. This study may indicate that an even lower dose may be acceptable to achieve the MIC level when delivered with a high compliance system such as disclosed in this invention, in the range 5-30 mg Tobramycin.

[2] = test system: Pseudomonas aeriginosa; details: typically required, for 90% of organisms; to be maintained for 120 minutes; cited from earlier work
[3] = test system: susceptible bacteria in the endobronchial space; details: 200-400 mg aminoglycoside in about 5 ml, 0.225% NaCl, pH 5.5-6.5, aerosolised (WO 96/12471); cited from earlier work
[4] = Budesonide study in 125 children with asthma using the system of the invention, asthma symptom score; format: in vivo; details: Improved Invention System, 200/50 μg; for daytime asthma symptom score, Baseline at entry / daytime asthma symptom score, End of Study: visual analogue range 0-3
Method: A study in 125 children with asthma using the system disclosed in this patent delivered three different regimes of a short duration (2-12 weeks) high delivered daily dose 200 μg followed by a long duration (12-22 weeks) low daily dose delivered dose 50 μg. Their treatment compliance was monitored electronically and their asthma symptoms by the parents using a visual analogue score. The treatment compliance over the study was 80/90% and the asthma scores reduced from a baseline of 1.23/1.27 to 0.23/0.43.

[5] = Budesonide study in 481 children with asthma using conventional nebulizers, asthma symptom score; format: in vivo; details: Conventional Nebuliser; for daytime asthma symptom score, End of Study: 12 weeks; for daytime asthma symptom score, End of Study / daytime asthma symptom score, Baseline at entry: visual analogue range 0-3
Method: The study in 481 children with asthma using conventional nebulizers delivered five different regimes. Nominal nebulizer doses were in the range 250/1000 μg daily and placebo over a 12 week period. Their asthma symptoms by the parents using a visual analogue scores, the asthma scores reduced from 1.21/1.33 to 0.87/0.93.

[6] = rhDNase response (FEV1) in adult CF patients who previously failed to respond; format: in vivo
Text: Mean change in FEV1 was 11.51%.

[7] = when starting rhDNase therapy; cited from earlier work

## NC[C@H]1O[C@H](O[C@H]2[C@H](O)[C@@H](O[C@H]3O[C@H](CO)[C@@H](O)[C@H](N)[C@H]3O)[C@H](N)C[C@@H]2N)[C@H](N)C[C@@H]1O [Tobramycin]
[1]; 30 mg delivered dose via the high compliance system
  concentration at 2 h: 98000 ng/g
[1]; 300 mg/5 ml via conventional nebulizer
  concentration at 2 h: 128000 ng/g
[2]
  MIC level: > 16 µg/mL
[3]
  suppresses and inhibits susceptible bacteria: at least 95%

## CCCC1O[C@@H]2C[C@H]3[C@@H]4CCC5=CC(=O)C=C[C@]5(C)[C@H]4[C@@H](O)C[C@]3(C)[C@]2(C(=O)CO)O1 (stereo partly shown) [Budesonide]
[4]; 2/22 weeks
  daytime asthma symptom score, Change: −1
  daytime asthma symptom score, Baseline at entry: 1.23
  daytime asthma symptom score, End of Study: 0.23
[4]; 6/18 weeks
  daytime asthma symptom score, Change: −0.83
  daytime asthma symptom score, Baseline at entry: 1.26
  daytime asthma symptom score, End of Study: 0.43
[4]; 12/12 weeks
  daytime asthma symptom score, Change: −0.91
  daytime asthma symptom score, Baseline at entry: 1.27
  daytime asthma symptom score, End of Study: 0.36
[5]; 250 μg once daily
  daytime asthma symptom score, Change: −0.28
  daytime asthma symptom score, End of Study: 0.93
  daytime asthma symptom score, Baseline at entry: 1.21
[5]; 250 μg twice daily
  daytime asthma symptom score, Change: −0.4
  daytime asthma symptom score, End of Study: 0.91
  daytime asthma symptom score, Baseline at entry: 1.31
[5]; 500 μg twice daily
  daytime asthma symptom score, Change: −0.46
  daytime asthma symptom score, End of Study: 0.87
  daytime asthma symptom score, Baseline at entry: 1.33
[5]; 1000 μg once daily
  daytime asthma symptom score, Change: −0.37
  daytime asthma symptom score, End of Study: 0.91
  daytime asthma symptom score, Baseline at entry: 1.28

B1: rhDNase: Pulmozyme (recombinant, human DNase), mucoactive drug for cystic fibrosis lung disease (protein, UniProt P24855 23-282, looked up)
Deoxyribonuclease-1: LKIAAFNIQTFGETKMSNATLVSYIVQILSRYDIALVQEVRDSHLTAVGKLLDNLNQDAPDTYHYVVSEPLGRNSYKERYLFVYRPDQVSAVDSYYYDDGCEPCGNDTFNREPAIVRFFSRFTEVREFAIVPLHAAPGDAVAEIDALYDVYLDVQEKWGLEDVMLMGDFNAGCSYVRPSQWSSIRLWTSPTFQWLIPDSADTTATPTHCAYDRIVVAGMLLRGAVVPDSALPFNFQAAYGLSDQLAQAISDHYPVEVMLK
modifications: dornase alfa
[6]; 10 days, 0.25 ml/0.25 mg of the formulation, high compliance delivery system
  Mean change in FEV1: 11.51%
[6]; previous rhDNase therapy with conventional nebulizer devices
  mean response to therapy, change in FEV1: 4.17%
[7]
  patients showing a greater than 10% change in FEV1 over baseline: Approximately 38%
